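Dose response: 5 concentrations. Exposure: 48 h. Format: 96-well plates. Endpoint: linear interpolation; highest concentration if not reached. Definition used: TGI = concentration required for complete inhibition of growth.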

Results on ten compounds are retold here after PubChem BioAssay (NCI).

Among the test systems are SF-295 CNS; SK-MEL-2 melanoma; UO-31 renal; SNB-75 CNS; RPMI-8226 leukemia; A549 NSCLC; SK-OV-3 ovarian; HOP-92 NSCLC; NCI-H226 lung; SN12C renal; CAKI-1 renal; OVCAR-5 ovarian; SF-268 CNS; RXF 393 renal; HL-60(TB) leukemia; OVCAR-4 ovarian; MCF7 breast; OVCAR-8 ovarian; MDA-MB-435; MDA-N.
What all share (assay): inhibition of tumour cell growth, NCI panel, 48 h

For the compound `C[C@@H]1CCC2[C@@H](C)[C@H](O[C@H]3O[C@@H]4O[C@@]5(C)CCC6[C@H](C)CCC([C@H]3C)[C@]64OO5)O[C@@H]3O[C@@]4(C)CCC1[C@@]23OO4` (stereo not given in full), the TGI in the experiment on SF-295 CNS was found to be 18.8 µM; in the experiment on SK-MEL-2 melanoma, 9.69 µM; in the experiment with UO-31 renal, 11 µM; in the experiment on SNB-75 CNS, 14.5 µM; with RPMI-8226 leukemia, 1.46 µM; with A549 NSCLC, 32.3 µM. For the same compound, the TGI was 41.7 µM with SK-OV-3 ovarian; 11.4 µM in the experiment on HOP-92 NSCLC; 34.1 µM in the experiment on NCI-H226 lung; 15.6 µM with SN12C renal; 13.9 µM with CAKI-1 renal; 10.3 µM in the experiment on OVCAR-5 ovarian. The TGI in the experiment on SF-268 CNS turned out to be 23.8 µM; with RXF 393 renal, 21.4 µM; in the experiment with HL-60(TB) leukemia it was 3.81 µM; in the experiment on OVCAR-4 ovarian, 16.4 µM; in the experiment on MCF7 breast, 25.3 µM; in the experiment with OVCAR-8 ovarian, 16.7 µM. Moreover, the TGI turned out to be 21.6 µM in the experiment with MDA-MB-435 and 19.2 µM in the experiment with MDA-N.

Consider `COC(=O)c1cc(C)n2c1CS[C@@H]2c1ccccc1`, for which the TGI in the experiment on SF-295 CNS was above 100 µM; in the experiment on SK-MEL-2 melanoma, 91.8 µM; with UO-31 renal, above 100 µM; with SNB-75 CNS it was 81.3 µM; with RPMI-8226 leukemia, 84.5 µM; in the experiment on A549 NSCLC, above 100 µM. In addition, the TGI is above 100 µM with SK-OV-3 ovarian; 76.8 µM with HOP-92 NSCLC; 89.1 µM in the experiment with NCI-H226 lung; above 100 µM in the experiment on SN12C renal; above 100 µM with CAKI-1 renal; above 100 µM in the experiment on OVCAR-5 ovarian. The TGI is above 100 µM in the experiment on SF-268 CNS; 55.5 µM in the experiment with RXF 393 renal; above 100 µM in the experiment on HL-60(TB) leukemia; above 100 µM in the experiment on OVCAR-4 ovarian; above 100 µM in the experiment on MCF7 breast; above 100 µM with OVCAR-8 ovarian. Further, the TGI was 79 µM in the experiment on MDA-MB-435 and above 100 µM with MDA-N.

`CN(C)CCSC(=Nc1ccccc1)N1C=COC=C1`: the TGI was above 100 µM in the experiment with SF-295 CNS; 32.1 µM in the experiment on SK-MEL-2 melanoma; above 100 µM in the experiment with UO-31 renal; above 100 µM in the experiment on SNB-75 CNS; above 100 µM in the experiment on RPMI-8226 leukemia; above 100 µM with A549 NSCLC. In addition, the TGI is above 100 µM in the experiment on SK-OV-3 ovarian; 73.2 µM in the experiment on HOP-92 NSCLC; above 75.6 µM in the experiment with NCI-H226 lung; 64.6 µM in the experiment with SN12C renal; above 100 µM in the experiment with CAKI-1 renal; above 100 µM in the experiment on OVCAR-5 ovarian. Besides, the TGI in the experiment with SF-268 CNS was 42.5 µM; with RXF 393 renal, 72.8 µM; with HL-60(TB) leukemia it was above 100 µM; in the experiment with OVCAR-4 ovarian it was above 62 µM; in the experiment with MCF7 breast it was 33.9 µM; in the experiment with OVCAR-8 ovarian, above 63.3 µM. Besides, the results for the TGI in the experiment on MDA-MB-435 and in the experiment with MDA-N were 34.8 µM and 45.4 µM, respectively.

Consider `OCCOCCN1CCN(c2nc(N3CCCC3)c3nc(Cl)c(NCc4ccccc4)nc3n2)CC1`, for which the TGI worked out at 29.3 µM with SF-295 CNS; 32 µM in the experiment on SK-MEL-2 melanoma; 21.7 µM in the experiment with UO-31 renal; 36.5 µM in the experiment on SNB-75 CNS; 27.9 µM in the experiment with RPMI-8226 leukemia; 28.4 µM in the experiment with A549 NSCLC. The TGI in the experiment with SK-OV-3 ovarian amounted to 31.9 µM; with HOP-92 NSCLC, 26.2 µM; in the experiment with NCI-H226 lung, 40.7 µM; in the experiment on SN12C renal it was 29.4 µM; in the experiment on CAKI-1 renal, 31.1 µM; with OVCAR-5 ovarian, 28.9 µM. Also, the TGI stood at 31.9 µM in the experiment on SF-268 CNS; 11.8 µM in the experiment with RXF 393 renal; 29 µM in the experiment with HL-60(TB) leukemia; 30.8 µM in the experiment on OVCAR-4 ovarian; 29.5 µM in the experiment with MCF7 breast; 32.2 µM in the experiment on OVCAR-8 ovarian. Moreover, the TGI worked out at 26 µM in the experiment on MDA-MB-435 and 22.7 µM in the experiment with MDA-N.

On to `Cc1cc(=O)oc2c(CNC(C)C(=O)O)c(O)ccc12` (stereo not given), for which the TGI with SF-295 CNS, in the experiment on SK-MEL-2 melanoma, in the experiment with UO-31 renal, in the experiment on SNB-75 CNS, in the experiment with RPMI-8226 leukemia and with A549 NSCLC was above 100 µM each time. The TGI in the experiment with SK-OV-3 ovarian, in the experiment on HOP-92 NSCLC, in the experiment with NCI-H226 lung, with SN12C renal, with CAKI-1 renal and with OVCAR-5 ovarian was above 100 µM in each case. The TGI with SF-268 CNS, in the experiment on RXF 393 renal, in the experiment with HL-60(TB) leukemia, with OVCAR-4 ovarian, with MCF7 breast and with OVCAR-8 ovarian was above 100 µM throughout. Moreover, the TGI in the experiment on MDA-MB-435 and in the experiment with MDA-N was above 100 µM in each case.

`COc1c(C(=O)/C(=N/Nc2ccccc2)C(C)=O)c(O)c(OC)c2occc12`: the TGI is above 100 µM in the experiment with SF-295 CNS; above 100 µM with SK-MEL-2 melanoma; 86.3 µM with UO-31 renal; 81.8 µM in the experiment with SNB-75 CNS; above 100 µM in the experiment on RPMI-8226 leukemia; above 100 µM in the experiment with A549 NSCLC. Also, the TGI in the experiment on SK-OV-3 ovarian is above 100 µM; with HOP-92 NSCLC it was 99.6 µM; with NCI-H226 lung, above 100 µM; with SN12C renal, above 100 µM; with CAKI-1 renal, above 100 µM; in the experiment on OVCAR-5 ovarian, above 100 µM. Also, the TGI in the experiment on SF-268 CNS, in the experiment with RXF 393 renal, in the experiment on HL-60(TB) leukemia, with OVCAR-4 ovarian, in the experiment with MCF7 breast and with OVCAR-8 ovarian was above 100 µM throughout. Further, the TGI in the experiment on MDA-MB-435 and in the experiment with MDA-N was above 100 µM in each case.

For `NCCCCC(N)C(=O)N1CCN(c2nc(N3CCCC3)c3nc(Cl)c(NCc4ccccc4)nc3n2)CC1` (stereo not given), the TGI in the experiment with SF-295 CNS was determined as 35.4 µM; with SK-MEL-2 melanoma it was 35.9 µM; with UO-31 renal it was 32.9 µM; in the experiment with SNB-75 CNS it was 32.9 µM; in the experiment with RPMI-8226 leukemia, 44.4 µM; in the experiment on A549 NSCLC, 37.3 µM. The TGI in the experiment on SK-OV-3 ovarian stood at 37.4 µM; with HOP-92 NSCLC it was 25.8 µM; with NCI-H226 lung, 45.6 µM; in the experiment with SN12C renal it was 34.3 µM; in the experiment on CAKI-1 renal, 91.8 µM; with OVCAR-5 ovarian, 33.9 µM. The TGI in the experiment with SF-268 CNS came to 45.2 µM; in the experiment with RXF 393 renal, 34 µM; with HL-60(TB) leukemia it was 36.1 µM; with OVCAR-4 ovarian, 50.8 µM; with MCF7 breast it was 38.1 µM; in the experiment with OVCAR-8 ovarian, 31.5 µM. Further, the TGI is 46.6 µM in the experiment on MDA-MB-435 and 33.7 µM in the experiment on MDA-N.

Turning to `Cc1nc2c(=O)[nH]c3ccccc3c2o1`, the TGI in the experiment with SF-295 CNS, in the experiment on SK-MEL-2 melanoma, in the experiment with UO-31 renal, in the experiment on SNB-75 CNS, with RPMI-8226 leukemia and in the experiment on A549 NSCLC was above 100 µM in each case. The TGI in the experiment with SK-OV-3 ovarian, in the experiment on HOP-92 NSCLC, in the experiment with NCI-H226 lung, in the experiment with SN12C renal, with CAKI-1 renal and in the experiment on OVCAR-5 ovarian was above 100 µM each time. In addition, the TGI in the experiment on SF-268 CNS, in the experiment on RXF 393 renal, in the experiment with HL-60(TB) leukemia, with OVCAR-4 ovarian, in the experiment with MCF7 breast and with OVCAR-8 ovarian was above 100 µM each time. The TGI in the experiment on MDA-MB-435 and in the experiment with MDA-N was above 100 µM throughout.

For the compound `COc1ccc(-c2nc(N(C)C)c3ccccc3n2)cc1`, the TGI in the experiment on SF-295 CNS was determined as 46.3 µM; in the experiment with SK-MEL-2 melanoma it was 41.7 µM; in the experiment with UO-31 renal, 15.8 µM; in the experiment on SNB-75 CNS it was 40.4 µM; with RPMI-8226 leukemia, 24.3 µM; in the experiment with A549 NSCLC, 46.8 µM. In addition, the TGI with SK-OV-3 ovarian is 48.2 µM; with HOP-92 NSCLC, 68.8 µM; in the experiment on NCI-H226 lung, 21.8 µM; with SN12C renal, 39.8 µM; with CAKI-1 renal, above 100 µM; in the experiment on OVCAR-5 ovarian, 62.2 µM. Further, the TGI in the experiment with SF-268 CNS is 99.3 µM; in the experiment with RXF 393 renal, 24.7 µM; with HL-60(TB) leukemia, 32.2 µM; with OVCAR-4 ovarian it was above 100 µM; in the experiment on MCF7 breast it was 24.1 µM; in the experiment on OVCAR-8 ovarian it was above 100 µM. Also, the values for the TGI in the experiment on MDA-MB-435 and with MDA-N were 33.8 µM and 32.5 µM, respectively.

On to `O=C1NCC2(CCN(Cc3ccccc3)CC2)N1`, for which the TGI in the experiment with SF-295 CNS, with SK-MEL-2 melanoma, with UO-31 renal, in the experiment with SNB-75 CNS, in the experiment with RPMI-8226 leukemia and in the experiment on A549 NSCLC was above 100 µM in each case. Moreover, the TGI in the experiment on SK-OV-3 ovarian, with HOP-92 NSCLC, with NCI-H226 lung, in the experiment on SN12C renal, in the experiment on CAKI-1 renal and in the experiment on OVCAR-5 ovarian was above 100 µM in each case. The TGI in the experiment on SF-268 CNS, in the experiment with RXF 393 renal, in the experiment on HL-60(TB) leukemia, in the experiment with OVCAR-4 ovarian, with MCF7 breast and in the experiment on OVCAR-8 ovarian was above 100 µM in each case. For the same compound, the TGI with MDA-MB-435 and in the experiment on MDA-N was above 100 µM each time.
